How the values were obtained:
Format in all cases: biochemical
Conditions in all cases: HeLa S3 lysate, sfGFP/mCherry ratio, 2 hrs at 30° C.
KRAS G12D = experiment: In vitro transcription-translation (IVTT) reporter assay, KRAS G12D test sequence
Excerpt: (§1) All reporter constructs have been cloned into the pT7CFE1-CHis plasmid (ThermoFisher #88860) using Gibson assembly procedures (NEB #E2611L). The parental pT7CFE1-CHis plasmid contains an EMCV IRES at the 5′UTR for translation initiation, a multiple-cloning site (MCS) for gene insertion, an optional C-terminal His-epitope tag, and polyA sequence in the 3′UTR to regulate mRNA stability. All reporters are designed to be inserted at the MCS to include a red fluorescent protein (mCherry), P2A self-cleaving peptide which releases the preceding mCherry protein product, and a fusion open reading frame containing a 3×FLAG epitope, a peptide sequence of interest (TEST), and green fluorescent protein (sfGFP).
(§2) Construct Plasmid Preparation: All plasmids are isolated from MACH1 cells (ThermoFisher) grown overnight in ampicillin-containing luria broth, and purified using ZymoPure Express Plasmid Midiprep Kit (Zymo Research). Constructs are sequenced verified and diluted to a working concentration of 110 ng/μL.
(§3) HeLa S3 Lysate Preparation: HeLa S3 cell pellets are acquired from Ipracell/Ipratech (Belgium) and shipped as 4 mL frozen cell pellets on dry ice for storage at −80° C. until use. The procedure for lysate preparation is as follows. Prepare 1× Lysis Buffer, cold and stored on ice:
(§4) Each preparation takes 8 cell pellets (4 ml packed volume each, approximately 1.0×10^9 cells per pellet). Thaw cell pellets from −80° C. on ice for 90 mins. Lay pellets horizontally on top of the ice and rotate every 30 mins to ensure even thawing. Once thawed, add 4 mL of cold lysis buffer to each pellet, and using a serological pipet, gently pipet up and down to break up clumps. Incubate resuspended cells in ice for an additional 30 mins (plunged into ice). During 30 min incubation, rinse and RNase-zap (Ambion) glass dounces (use loose pestle “A”), gently dry and place on ice until needed. Prepare RNase-free Eppendorf tubes for spinning and for batch storage. Add batch labels to 1.5-1.7 mL RNase-free microcentrifuge tubes (labeling scheme below). Each batch will have an extra 1.5-1.7 mL RNase-free microcentrifuge tube for 40 μL of lysate, label the top of this tube (labeling scheme below). After 30 min incubation, transfer all 8 mL of cell pellet to dounce. Cell lysis is complete after douncing 100 times. Aliquot cell lysis into 1.5-1.7 mL temporary-microcentrifuge tubes. Place tubes in centrifuge with “fins” out, and spin at 1,200 xg for 5 mins. After the first spin use a 1 mL pipet to resuspend each tube and repeat spin. This acts as an additional lysis step, is more vigorous and increases lysate yield. During second spin get liquid N2 and a fresh conical tube on ice.
(§5) After spin is complete, transfer supernatant (lysate) from microcentrifuge tubes into the 50 mL conical tube and keep on ice. Repeat steps 10-14 for all other cell pellets until completed. Once all cell lysate has been transferred to the 50 mL conical tube pipet to mix so the solution is homogenous. Transfer 1 mL of lysate into batch-labeled microcentrifuge tubes and flash freeze in liquid nitrogen. Be sure to pipet up and down to mix throughout transfer step. Place all tubes in the […] for long-term storage.
(§6) In vitro transcription-translation assay setup: Each assay includes a master mix containing lysate and shared components, a 96-well plate containing compound titrations for testing, a 96-well DNA plate with reporter constructs to be tested, 96-well skirted PCR plates, and 96-well flat-bottom, black, fluorescent assay plates. […]

MYC = experiment: In vitro transcription-translation (IVTT) reporter assay, MYC test sequence
Excerpt: as §1, §2, §3, §4, §5, §6

ALK = experiment: In vitro transcription-translation (IVTT) reporter assay, ALK test sequence
Excerpt: as §1, §2, §3, §4, §5, §6

Compound `COc1ccc(C[C@H]2NC[C@H](O)[C@H]2OC(=O)Cc2ccc(F)cc2)cc1` [V187054, (2R,3S,4S)-4-hydroxy-2-[(4-methoxyphenyl)methyl]pyrrolidin-3-yl 2-(4-fluorophenyl) acetate] has an IC50 (KRAS G12D) of under 10 µM and an IC50 (MYC) of under 10 µM.

With `COc1ccc(C[C@H]2NC[C@H](O)[C@H]2OC(=O)C2CC(O)C2)cc1` (stereo partly drawn) [V186765] the IC50 (KRAS G12D) was 10 to 20 µM and the IC50 (MYC) was under 10 µM.

With `COc1ccc(C[C@H]2NC[C@H](O)[C@H]2OC(=O)Cc2ccc(F)c(Cl)c2)cc1` [V187164, (2R,3S,4S)-4-hydroxy-2-[(4-methoxyphenyl)methyl]pyrrolidin-3-yl 2-(3-chloro-4-fluorophenyl)acetate; trifluoroacetic acid] the IC50 (KRAS G12D) was under 10 µM and the IC50 (MYC) was under 10 µM.

Compound `COc1ccc(C[C@H]2NC[C@H](O)[C@H]2OC(=O)C2CC3(CNC3)C2)cc1` [V0108, (2R,3S,4S)-4-hydroxy-2-[(4-methoxyphenyl)methyl]pyrrolidin-3-yl 2-azaspiro[3.3]heptane-6-carboxylate] has an IC50 (KRAS G12D) of over 30 µM and an IC50 (MYC) of over 30 µM.

`COc1ccc(C[C@H]2NC[C@H](O)[C@H]2OC(=O)C2CCCS2)cc1` (stereo partly drawn) [V186774, (2R,3S,4S)-4-hydroxy-2-[(4-methoxyphenyl)methyl]pyrrolidin-3-yl thiolane-2-carboxylate] gave an IC50 (KRAS G12D) of over 30 µM and an IC50 (MYC) of 20 to 30 µM.

For `COc1ccc(C[C@H]2NC[C@H](O)[C@H]2OC(=O)[C@H]2CN(Cc3ccccc3)CC23CNC3)cc1` [V186718, (2R,3S,4S)-4-hydroxy-2-[(4-methoxyphenyl)methyl]pyrrolidin-3-yl (8R)-6-benzyl-2,6-diazaspiro[3.4]octane-8-carboxylate], the IC50 (KRAS G12D) was over 30 µM and the IC50 (ALK) was over 30 µM.

Compound `COc1ccc(C[C@H]2NC[C@H](O)[C@H]2OC(=O)[C@H]2CC[C@@H](O)CC2)cc1` [V186822, (2R,3S,4S)-4-hydroxy-2-[(4-methoxyphenyl)methyl]pyrrolidin-3-yl (1 s,4 s)-4-hydroxy cyclohexane-1-carboxylate] has an IC50 (KRAS G12D) of over 30 µM.

Work on `COc1ccc(C[C@H]2NC[C@H](O)[C@H]2OC(=O)COC2CC(F)(F)C2)cc1` [V187171, (2R,3S,4S)-4-hydroxy-2-[(4-methoxyphenyl)methyl]pyrrolidin-3-yl 2-(3,3-difluorocyclobutoxy)acetate; trifluoroacetic acid] yielded an IC50 (KRAS G12D) of under 10 µM and an IC50 (ALK) of under 10 µM.

`COc1ccc(C[C@H]2NC[C@H](O)[C@H]2OC(=O)C2CCOCC2)cc1` [V186763, (2R,3S,4S)-4-hydroxy-2-[(4-methoxyphenyl)methyl]pyrrolidin-3-yl oxane-4-carboxylate] was tested, and the IC50 (KRAS G12D) was over 30 µM and the IC50 (ALK) was over 30 µM.

In the case of `COc1ccc(C[C@H]2NC[C@H](O)[C@H]2OC(=O)CCC2C(=O)N(C)CC(=O)N2C)cc1` (stereo partly drawn) [V186871, (2R,3S,4S)-4-hydroxy-2-[(4-methoxyphenyl)methyl]pyrrolidin-3-yl 3-(1,4-dimethyl-3,6-dioxopiperazin-2-yl)propanoate; trifluoroacetic acid], the IC50 (KRAS G12D) is reported as over 30 µM and the IC50 (MYC) is reported as 20 to 30 µM.

With `COc1ccc(C[C@H]2NC[C@H](O)[C@H]2OC(=O)COC2CC2)cc1` [V187169, (2R,3S,4S)-4-hydroxy-2-[(4-methoxyphenyl)methyl]pyrrolidin-3-yl 2-cyclopropoxyacetate; trifluoroacetic acid] the IC50 (KRAS G12D) was under 10 µM and the IC50 (MYC) was under 10 µM.

`COc1ccc(C[C@H]2NC[C@H](O)[C@H]2OC(=O)CNc2c(NCc3ccccc3)c(=O)c2=O)cc1` [V187517, (2R,3S,4S)-4-hydroxy-2-[(4-methoxyphenyl)methyl]pyrrolidin-3-yl 2-{[2-(benzylamino)-3,4-dioxocyclobut-1-en-1-yl]amino}acetate; trifluoroacetic acid] showed an IC50 (KRAS G12D) of 20 to 30 µM and an IC50 (ALK) of under 10 µM.

Compound `CC(=O)O[C@@H]1[C@@H](O)CN[C@@H]1Cc1ccc(-c2ccccc2)cc1` [V186811] has an IC50 (KRAS G12D) of under 10 µM and an IC50 (MYC) of under 10 µM.

`COc1ccc(C[C@H]2NC[C@H](O)[C@H]2OC(=O)Cc2ccccc2)cc1` [V0110, (2R,3S,4S)-4-hydroxy-2-[(4-methoxyphenyl)methyl]pyrrolidin-3-yl 2-phenylacetate] was tested, and the IC50 (KRAS G12D) was under 10 µM and the IC50 (MYC) was under 10 µM.

From patent US20250091989A1, “SMALL MOLECULE PROTEIN SYNTHESIS MODULATORS” (Interdict Bio, Inc., priority 2023, published 2025)
